SMILES strings stand for the structures. pIC50: −log10 of the molar value.

One test has as its target Human LDHA (Homo sapiens (Human), UniProt P00338). Nature of the test: human LDHA primary biochemical assay (resazurin/diaphorase coupled, fluorescence). As to conditions: LDHA inhibitory activity, activity level based on IC50 (Table 7). From the text:
Test compounds were placed in a Greiner Bio-One (Monroe, N.C.) 1536-well black solid bottom assay plate. 200 millimolar (mM) Tris HCl, pH 7.4, 100 micromolar […] EDTA and 0.01% TWEEN-20™, final concentration, was used as the assay buffer. The LDHA reagent was 2 nanomolar (nM) Human LDHA (Meridian Life Science, Inc., Memphis, Tenn.), final concentration, in assay buffer.
In general terms: Resazurin is reduced to fluorescent resorufin, in cell work by metabolically active cells.
By pIC50 is commonly meant the negative decadic logarithm of the IC50, by convention in mol/L. Compound `COc1cccc(-c2cc(-c3nn(-c4nc(C(=O)O)cs4)c(C4CC4)c3Cc3ccc(S(N)(=O)=O)cc3)ccc2F)c1` [Compound 483, 2-(5-cyclopropyl-3-(6-fluoro-3′-methoxy-[1,1′-biphenyl]-3-yl)-4-(4-sulfamoylbenzyl)-1H-pyrazol-1-yl)thiazole-4-carboxylic acid] showed a pIC50 of over 7.00. Still for that read-out and setting: to `Cc1ccc(-c2cccc(-c3nn(-c4nc(C(=O)O)cs4)c(CC4CC4)c3Cc3ccc(S(N)(=O)=O)cc3F)c2)cc1` [Compound 363] belongs over 7.00. Still for that read-out and setting: the value for `CCc1cccc(-c2cc(-c3nn(-c4nc(C(=O)O)cs4)cc3Cc3ccc(S(N)(=O)=O)cc3)ccc2F)c1` [Compound 513, 2-(3-(3′-ethyl-6-fluoro-[1,1′-biphenyl]-3-yl)-4-(4-sulfamoylbenzyl)-1H-pyrazol-1-yl)thiazole-4-carboxylic acid] was 6.00 to 7.00; that for `CCOC(=O)c1csc(-n2nc(-c3ccc(F)c(-c4ccc(C)cc4)c3)c(Cc3ccc(S(N)(=O)=O)c(F)c3)c2CC2CC2)n1` [Compound 343] was 4.24 to 6.00. On to `O=C(O)c1csc(-n2nc(-c3ccc(F)cc3)cc2O)n1` [Compound 425], for which the pIC50 was under 4.24. The same measure, in the same setting: to `Cc1ccc(-c2nn(-c3nc(C(=O)O)cs3)c(C3CC3)c2Cc2ccc(S(N)(=O)=O)cc2)cc1-c1cccc(N)c1` [Compound 500, 2-(3-(3′-amino-6-methyl-[1,1′-biphenyl]-3-yl)-5-cyclopropyl-4-(4-sulfamoylbenzyl)-1H-pyrazol-1-yl)thiazole-4-carboxylic acid] belongs over 7.00; to `NS(=O)(=O)c1ccc(Cc2c(-c3cccc4ccccc34)nn(-c3nc(C(=O)O)cs3)c2O)cc1` [Compound 451], 4.24 to 6.00. As to `Cc1ccc(-c2cc(-c3nn(-c4nc(C(=O)O)cs4)cc3Cc3ccc(S(N)(=O)=O)cc3)ccc2F)cc1` [Compound 476, 2-(3-(6-fluoro-4′-methyl-[1,1′-biphenyl]-3-yl)-4-(4-sulfamoylbenzyl)-1H-pyrazol-1-yl)thiazole-4-carboxylic acid], the pIC50 is over 7.00.

`COc1cccc(-c2cccc(-c3nn(-c4nc(C(=O)O)cs4)c(C4CC4)c3Cc3ccc(S(N)(=O)=O)c(F)c3)c2)c1` [Compound 353] gave a pIC50 of over 7.00. Same read-out and setting: the value for `CCOC(=O)c1csc(-n2nc(-c3cccc(-c4ccc(C)cc4)c3)c(Cc3ccc(S(N)(=O)=O)cc3F)c2CC2CC2)n1` [Compound 344] was under 4.24; that for `NS(=O)(=O)c1ccc(Cc2c(-c3cccc(OCc4ccccc4)c3)nn(-c3nc(C(=O)O)cs3)c2CC2CC2)cc1` [Compound 339] was over 7.00; that for `CCOC(=O)c1csc(-n2nc(-c3ccc(F)c(C#Cc4ccc(C)s4)c3)c(Cc3ccc(S(N)(=O)=O)c(F)c3)c2CC2CC2)n1` [Compound 447] was under 4.24. As to `NS(=O)(=O)c1ccc(Cc2c(-c3ccc(F)c(-c4ccc(F)cc4)c3)nn(-c3nc(C(=O)O)cs3)c2C2CC2)cc1` [Compound 482, 2-(5-cyclopropyl-3-(4′,6-difluoro-[1,1′-biphenyl]-3-yl)-4-(4-sulfamoylbenzyl)-1H-pyrazol-1-yl)thiazole-4-carboxylic acid], the negative logarithm of the IC50 (pIC50) is over 7.00. Still for that read-out and setting: the value for `COc1cccc(-c2cccc(-c3nn(-c4nc(C(=O)O)cs4)cc3Cc3ccc(S(N)(=O)=O)cc3)c2)c1` [Compound 521, 2-(3-(3′-methoxy-[1,1′-biphenyl]-3-yl)-4-(4-sulfamoylbenzyl)-1H-pyrazol-1-yl)thiazole-4-carboxylic acid] was over 7.00; that for `C/C=C/c1cc(-c2nn(-c3nc(C(=O)O)cs3)c(CC3CC3)c2Cc2ccc(S(N)(=O)=O)c(F)c2)ccc1F` [Compound 533, (E)-2-(5-(cyclopropylmethyl)-3-(4-fluoro-3-(prop-1-en-1-yl)phenyl)-4-(3-fluoro-4-sulfamoylbenzyl)-1H-pyrazol-1-yl)thiazole-4-carboxylic acid] was over 7.00; that for `COc1cccc(-c2cccc(-c3c(Cc4ccc([S+](N)(=O)[O-])c(F)c4)c(C4CC4)nn3-c3nc(C(=O)O)cs3)c2)c1` [Compound 352] was 4.24 to 6.00. The compound `Cc1ccc(-c2cc(-c3nn(-c4nc(C(=O)O)cs4)cc3Cc3ccc(S(N)(=O)=O)cc3)ccc2C)cc1C#N` [Compound 496, 2-(3-(3′-cyano-4′,6-dimethyl-[1,1′-biphenyl]-3-yl)-4-(4-sulfamoylbenzyl)-1H-pyrazol-1-yl)thiazole-4-carboxylic acid] had a pIC50 of 6.00 to 7.00.

The test is the same for the next values; noted with them: LDHA inhibitory activity, assay of Example 1; activity level classes.
Compound `NC(=O)c1csc(-n2nc(-c3ccccc3)c(Cc3ccc(S(N)(=O)=O)cc3)c2C(F)(F)F)n1` [Compound 127, 2-(3-phenyl-4-(4-sulfamoylbenzyl)-5-(trifluoromethyl)-1H-pyrazol-1-yl)thiazole-4-carboxamide] had a pIC50 of under 4.24. Same read-out and setting: to `CCOC(=O)c1csc(-n2nc(-c3cccc(OC4CCCC4)c3)c(Cc3ccc(S(N)(=O)=O)cc3F)c2CC2CC2)n1` [Compound 335] belongs 4.24 to 6.00; to `CCOC(=O)c1csc(-n2nc(C3CCCC3)c(Oc3ccc(S(N)(=O)=O)cc3)c2-c2ccccc2)n1` [Compound 168, ethyl 2-(3-cyclopentyl-5-phenyl-4-(4-sulfamoylphenoxy)-1H-pyrazol-1-yl)thiazole-4-carboxylate], under 4.24; to `COc1cccc(-c2cccc(-c3nn(-c4nc(C(=O)O)cs4)c(C(F)(F)F)c3Cc3ccc(S(N)(=O)=O)cc3)c2)c1` [Compound 314], over 7.00.

In turn, `NS(=O)(=O)c1ccc(Cc2cn(-c3csc4c(=O)[nH]cnc34)nc2-c2ccccc2)cc1` [Compound 210, 4-((1-(4-oxo-3,4-dihydrothieno[3,2-d]pyrimidin-7-yl)-3-phenyl-1H-pyrazol-4-yl)methyl)benzenesulfonamide] gave a pIC50 of under 4.24.

Compound `N#Cc1c(Cc2ccc(S(N)(=O)=O)cc2)c(-c2ccccc2)nn1-c1nc(C(=O)O)cs1` [Compound 50] gave a pIC50 of over 7.00. Still for that read-out and setting: to `Cc1nn(-c2nc(C(=O)O)cs2)c(O)c1Cc1ccc(S(N)(=O)=O)cc1` [Compound 66, 2-(5-hydroxy-3-methyl-4-(4-sulfamoylbenzyl)-1H-pyrazol-1-yl)thiazole-4-carboxylic acid] belongs under 4.24; to `CC(C)C(=O)OCOC(=O)c1csc(-n2nc(-c3ccc(F)c(F)c3)cc2O)n1` [Compound 109, (isobutyryloxy)methyl 2-(3-(3,4-difluorophenyl)-5-hydroxy-1H-pyrazol-1-yl)thiazole-4-carboxylate], under 4.24; to `Nc1c(Cc2ccc(S(N)(=O)=O)cc2)c(-c2ccccc2)nn1-c1nc(C(F)(F)F)cs1` [Compound 137, 4-((5-amino-3-phenyl-1-(4-(trifluoromethyl)thiazol-2-yl)-1H-pyrazol-4-yl)methyl)benzenesulfonamide], under 4.24.

In the case of `Cc1ccc(-c2cccc(-c3nn(-c4nc(C(=O)O)cs4)c(C(F)(F)F)c3Cc3ccc(S(N)(=O)=O)cc3)c2)cc1` [Compound 311], the pIC50 was over 7.00. Compound `O=C(O)c1csc(-n2cc(-c3ccc(F)c(F)c3)c3cccnc32)n1` [Compound 23, 2-(3-(3,4-difluorophenyl)-1H-pyrrolo[2,3-b]pyridin-1-yl)thiazole-4-carboxylic acid] gave a pIC50 of under 4.24. Still for that read-out and setting: to `COC(=O)c1cnc(-n2nc(-c3ccccc3)c(Cc3ccc(S(N)(=O)=O)cc3)c2N)nc1C(F)(F)F` [Compound 190, methyl 2-(5-amino-3-phenyl-4-(4-sulfamoylbenzyl)-1H-pyrazol-1-yl)-4-(trifluoromethyl)pyrimidine-5-carboxylate] belongs under 4.24; to `NS(=O)(=O)c1ccc(Cc2c(-c3ccc(F)c(-c4ccc(F)cc4)c3)nn(-c3nc(C(=O)O)cs3)c2C(F)(F)F)cc1` [Compound 240], over 7.00; to `CC(=O)Nc1c(-c2ccccc2)nn(-c2nc(C(=O)O)cs2)c1O` [Compound 126, 2-(4-acetamido-5-hydroxy-3-phenyl-1H-pyrazol-1-yl)thiazole-4-carboxylic acid], under 4.24.

The same test, now with this note: read-out: Inhibitory activity IC50.
Turning to `NS(=O)(=O)c1ccc(Cc2c(-c3ccccc3)nn(-c3nc(C(=O)O)cs3)c2C2CCCCC2)cc1` [Compound 177, 2-(5-cyclohexyl-3-phenyl-4-(4-sulfamoylbenzyl)-1H-pyrazol-1-yl)thiazole-4-carboxylic acid], the pIC50 is 4.24 to 6.00.

As for `NS(=O)(=O)c1ccc(Cc2nn(-c3nc(C(=O)O)cs3)c3ccccc23)cc1` [Compound 35, 2-(3-(4-sulfamoylbenzyl)-1H-indazol-1-yl)thiazole-4-carboxylic acid], the pIC50 was 4.24 to 6.00.

As to `NS(=O)(=O)c1ccc(Cc2c(-c3ccccc3)nn(-c3nc(C(=O)O)cs3)c2-c2ccccc2)cc1` [Compound 155, 2-(3,5-diphenyl-4-(4-sulfamoylbenzyl)-1H-pyrazol-1-yl)thiazole-4-carboxylic acid], the negative logarithm of the IC50 (pIC50) was over 7.00. The same measure, in the same setting: the value for `NS(=O)(=O)c1ccc(Cc2c(CC3CC3(F)F)nn(-c3nc(C(=O)O)cs3)c2-c2cccc(-c3ccccc3)c2)cc1` (centres unmarked) [Compound 208, 2-(5-([1,1′-biphenyl]-3-yl)-5-((2,2-difluorocyclopropyl)methyl)-4-(4-sulfamoylbenzyl)-1H-pyrazol-1-yl)thiazole-4-carboxylic acid] was 4.24 to 6.00; that for `N[S+](=O)([O-])c1ccc(Cc2c(C3(C(F)(F)F)CC3)nn(-c3nc(C(=O)O)cs3)c2-c2cccc(-c3ccccc3)c2)cc1F` [Compound 301] was 4.24 to 6.00; that for `NS(=O)(=O)c1ccc(Oc2c(C3CCCC3)nn(-c3nc(C(=O)O)cs3)c2-c2ccccc2)cc1` [Compound 170, 2-(3-cyclopentyl-5-phenyl-4-(4-sulfamoylphenoxy)-1H-pyrazol-1-yl)thiazole-4-carboxylic acid] was 4.24 to 6.00. For the compound `NS(=O)(=O)c1ccc(Cc2c(-c3cccc(-c4ccccc4)c3)nn(-c3nc(-c4nnn[nH]4)cs3)c2O)cc1` [Compound 72, 4-((1-(4-(1H-tetrazol-5-yl)thiazol-2-yl)-3-([1,1′-biphenyl]-3-yl)-5-hydroxy-1H-pyrazol-4-yl)methyl)benzenesulfonamide], the pIC50 was 4.24 to 6.00.

The values above are taken from US10961200B2, “Small molecule inhibitors of lactate dehydrogenase and methods of use thereof” (THE UNITED STATES OF AMERICA, AS REPRESENTED BY THE …, priority 2014, dated 2021).
